Laboratory results taken from ChEMBL document CHEMBL4052731, “Interconvertible geometric isomers of Plasmodium falciparum dihydroorotate dehydrogenase inhibitors exhibit multiple binding modes” (Bioorg Med Chem Lett, 2017).

What was measured:
[1] = Inhibition of homologous location truncated N-terminal His-tagged Plasmodium falciparum DHODH expressed in Escherichia coli pyrD Sphi6745 by spectrophotometric analysis
[2] = biological target: Dihydroorotate dehydrogenase (quinone), mitochondrial (Homo sapiens, UniProt Q02127); assay: Inhibition of homologous location truncated N-terminal His-tagged human DHODH expressed in Escherichia coli pyrD Sphi6745 by spectrophotometric analysis
[3] = Selectivity ratio of IC50 for homologous location truncated N-terminal His-tagged human DHODH to IC50 for homologous location truncated N-terminal His-tagged Plasmodium falciparum DHODH

Sequence of Dihydroorotate dehydrogenase (quinone), mitochondrial (Q02127 whole entry, the tested form may be a part): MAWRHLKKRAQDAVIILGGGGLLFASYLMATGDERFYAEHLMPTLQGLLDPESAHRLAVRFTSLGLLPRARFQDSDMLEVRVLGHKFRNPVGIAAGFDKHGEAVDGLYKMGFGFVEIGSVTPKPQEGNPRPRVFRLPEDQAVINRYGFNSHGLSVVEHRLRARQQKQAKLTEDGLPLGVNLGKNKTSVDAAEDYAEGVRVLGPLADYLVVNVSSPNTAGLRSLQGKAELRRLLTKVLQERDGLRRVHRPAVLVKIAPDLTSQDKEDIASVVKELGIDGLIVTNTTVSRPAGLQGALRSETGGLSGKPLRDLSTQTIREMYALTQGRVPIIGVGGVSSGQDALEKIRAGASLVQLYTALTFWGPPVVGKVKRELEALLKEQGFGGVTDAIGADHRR

SMILES	IC50 [1] [nM]	IC50 [2] [nM]	Ratio IC50 [3]	Ki [1] [nM]
CCOC(=O)/C(C#N)=C\Nc1ccc2sc3ccccc3c2c1	1200	–	–	–
CCn1c2ccccc2c2cc(NC=C(C(C)=O)C(C)=O)ccc21	> 100000	–	–	–
CCOC(=O)/C(=C\Nc1ccc2sc3ccccc3c2c1)[N+](=O)[O-]	380	> 100000	–	150
CC1(C)OC(=O)C(=CNc2ccc3sc4ccccc4c3c2)C(=O)O1	> 100000	–	–	–
CCOC(=O)C(=CNc1ccc2c(c1)c1ccccc1n2CC)C(=O)OCC	4400	–	–	–
CCn1c2ccccc2c2cc(NC=C3C(=O)OC(C)(C)OC3=O)ccc21	> 100000	–	–	–
CCOC(=O)/C(=C/Nc1ccc2c(c1)c1ccccc1n2CC)[N+](=O)[O-]	94	> 100000	–	37

Second part, led by results:

IC50 [1] [nM]	IC50 [2] [nM]	Ratio IC50 [3]	SMILES	Ki [1] [nM]
160	–	–	CCOC(=O)C(=CNc1ccc2sc3ccccc3c2c1)C(=O)OCC	20
> 100000	–	–	CCOC(=O)/C(C#N)=C(/C)Nc1ccc2c(c1)c1ccccc1n2CC	–
280 to 440	–	1000	CCOC(=O)/C(C#N)=C\Nc1ccc2c(c1)c1ccccc1n2CC	50
> 100000	–	–	CC(=O)C(=CNc1ccc2sc3ccccc3c2c1)C(C)=O	–
> 100000	–	–	CCOC(=O)/C(C#N)=C(/C)Nc1ccc2sc3ccccc3c2c1	–
